Reference: patent publication US5795882A, “Method of treating prostatic diseases using delayed and/or sustained release vitamin D formulations” (Bone Care International, Inc., priority 1996, dated 1998)

Tests used:
[1] = In vitro thermal conversion of 1α-hydroxyprevitamin D to 1α-hydroxyvitamin D; assay type: physicochemical; settings: in ethanol, 37° C.
Description: A series of experiments were conducted which address the in vitro conversion of previtamin to vitamin for three 1α-hydroxyprevitamin D's: 1α-hydroxyprevitamin D2, 1α,24-dihydroxyprevitamin D2 and 1α-hydroxyprevitamin D3. Each 1α-hydroxyprevitamin D was dissolved in ethanol, incubated at 37° C. in a water bath, and samples taken at two-hour intervals. An analytical HPLC separation was performed on each sample to quantify the thermal conversion of the previtamin to the vitamin form. The data collected were normalized to account for the presence of any vitamin form in the initial formulation (≤10%). The results are presented in FIG. 1 which is a plot of % previtamin versus time in hours. Linear regression lines were generated for each previtamin.

[2] = Pharmacokinetics of 1α,25-(OH)2 D3 in vitamin D-deficient rats after oral dosing (Example 4); assay type: in vivo, rat; settings: single oral dose, 2-48 h
Description: One group is killed 8 hours after dosing with the vehicle. […] The blood is collected and analyzed for 1α,25-(OH)2 D3 levels.

[3] = Comparison of oral bioavailability in rachitic rats (Example 5); assay type: in vivo, rat; settings: oral, 12 h
Description: Three-week-old rats were maintained on a vitamin D-deficient diet containing normal levels of calcium and phosphorus for 3-6 weeks until marked hypocalcemia was observed. […] A control group received only the vehicle. For all treatment groups, blood was obtained at 12 hours postdosing, and analyzed for serum levels of the vitamin form.

[4] = Equilibration of previtamin to vitamin form during binding incubation (HPLC); assay type: physicochemical; settings: end of the VDR binding incubation, read-out: fraction equilibrated to the vitamin form
[5] = Blood level of 1α,25-(OH)2 D3 in vitamin D-deficient rats after oral dosing (Example 3); assay type: in vivo, rat; settings: oral 0.25 μg/kg, 4 h
Description: Male weanling rats are fed a diet deficient in vitamin D and with normal calcium (0.47%). […] Four hours after administration, the rats are killed and their blood level of 1α,25-(OH)2 D3 is measured using a standard technique.

half-life [1]: 17.7 h
1α,25-(OH)2 D3 serum levels [2]: increased 1α,25-(OH)2 D3 serum levels
degraded [4]: ~2%
blood level of 1α,25-(OH)2 D3 versus control [5]: significantly elevated
SMILES: CC1=C(/C=C\C2=CCC[C@]3(C)[C@@H]([C@H](C)CCCC(C)(C)O)CC[C@@H]23)C[C@@H](O)C[C@@H]1O [1α,25-(OH)2 preD3, 1α,25-dihydroxyprevitamin D3]
time profile of serum 1α,25-(OH)2 D3 increase versus dosing with 1α,25-(OH)2 D3 [2]: more gradual and sustained for a greater duration
oral bioavailability versus 1α,25-(OH)2 D3 [3]: greater bioavailability than the active form of the vitamin
